Patent publication US10870710B2, “Synthetic oligosaccharide subunits of the Psl exopolysaccharide of pseudomonas aeruginosa and uses thereof” (Medlmmune Limited, priority 2013, dated 2020)

These molecules were tested on anti-Psl mAb WapR-016 (class III) (assay: ELISA, class III mAb WapR-016 binding to oligosaccharide-BSA conjugates). Settings: oligosaccharide-BSA conjugate coated on plate; mAb 5 μg/mL.
Description: Microtiter plates were coated with tetrasaccharide (3)-BSA conjugate (3A), pentasaccharide (2)-BSA conjugate (3B), hexasaccharide (4)-BSA conjugate (3C), and decasaccharide (1)-BSA conjugate (3D) at the indicated carbohydrate concentrations. Anti-Psl mAbs class I (Cam-003, ●), class II (WapR-001, ▪), class III (WapR-016, ▴), and R347 (♦) (5 μg/mL) were tested for reactivity with each oligosaccharide component. The optical density (OD) values are reported as the means±SD. Class I (Cam-003), II (WapR-001), and III (WapR-016) anti-Psl mAbs were previously shown to bind three unique epitopes of Psl derived from P. aeruginosa.
The conjugations were performed as instructed by Pierce Endogen Inc. In short, the thiol derivative (2.5 eq. excess to available MI-groups on the protein), deprotected just prior to conjugation as described above, was dissolved in ddH2O (100 μL) and added to a solution of the maleimide activated protein (2 mg) in conjugation buffer sodium phosphate pH 7.2 containing EDTA and sodium azide (200 μL). The mixture was incubated at room temperature for 18 h and then purified by Millipore Centriplus centrifugal filter devices with a 10 kDa molecular cutoff. All centrifugations were performed at 4° C. for 25 min, 3000 rpm. The reaction mixture was centrifuged and the filter washed with sodium phosphate buffer pH 7.4 (3×200 μL). The conjugate was retrieved and taken up in sodium phosphate buffer pH 7.4, 0.15 M sodium chloride (1 mL). This gave glycoconjugates with a molar carbohydrate/BSA ratio of 7:1 for tetrasaccharide 3, 8:1 for pentasaccharide 2, 15:1 for hexasaccharide 4, and 5:1 for decasaccharide 1 as determined by quantitative monosaccharide analysis by HPAEC/PAD and the Lowry protein concentration assay.
ELISA plates (Nunc MaxiSorp) were coated overnight at 4° C. with 3-fold serial dilutions of oligosaccharide-BSA conjugates (relative to the concentration of the conjugated oligosaccharides) followed by washing with PBS supplemented with 0.1% Tween 20 (PBS-T) and blocking with PBS supplemented with 1% bovine serum albumin (PBS-B). The coated ELISA plates were incubated with anti-Psl antibodies (5 μg/mL in PBS-B) for 1 h at 4° C. Next the plates were washed with PBS-T and treated with HRP-conjugated anti-human secondary antibodies for 1 h followed by development and analysis as described (Digiandomenico, A., et al., J. Exp. Med. 2012, 209, 1273-1287).
After confirming the structural integrity of the synthetic Psl oligosaccharides, the ability of various anti-Psl mAbs to recognize the synthetic oligosaccharides was examined as follows. […]

Row | SMILES | ELISA reactivity with WapR-016
1 | CC1O[C@@H](OC2C(O)[C@H](OC3C(O[C@H]4OC(CO)[C@@H](O)C(O)C4O)[C@H](OC4C(O)[C@H](OC5C(O)[C@H](OC6C(O)[C@H](OCN)OC(CO)[C@H]6O)OC(C)[C@@H]5O)OC(CO)[C@H]4O)OC(CO)[C@H]3O)OC(CO)[C@H]2O)C(O)C(O[C@@H]2OC(CO)[C@@H](O)C(O[C@@H]3OC(CO)[C@@H](O)C(O)C3O[C@H]3OC(CO)[C@@H](O)C(O)C3O)C2O)[C@H]1O (stereo partly shown) [compound 1] | weakly
2 | CC1O[C@@H](OC2C(O)[C@H](OCN)OC(CO)[C@H]2O)C(O)C(O[C@@H]2OC(CO)[C@@H](O)C(O[C@@H]3OC(CO)[C@@H](O)C(O)C3O[C@H]3OC(CO)[C@@H](O)C(O)C3O)C2O)[C@H]1O (stereo partly shown) [compound 2] | did not bind
3 | CC1O[C@@H](OC2C(O)[C@H](OCN)OC(CO)[C@H]2O)C(O)C(O[C@@H]2OC(CO)[C@@H](O)C(O[C@@H]3OC(CO)[C@@H](O)C(O)C3O)C2O)[C@H]1O (stereo partly shown) [compound 3] | did not bind
4 | CC1O[C@@H](OC2C(O)[C@H](OCN)OC(CO)[C@H]2O)C(O)C(O[C@@H]2OC(CO)[C@@H](O)C(O[C@@H]3OC(CO)[C@@H](O)C(O[C@@H]4OC(CO)[C@@H](O)C(O)C4O)C3O[C@H]3OC(CO)[C@@H](O)C(O)C3O)C2O)[C@H]1O (stereo partly shown) [compound 4] | react potently
